Measurements published in patent US9056865B2, “Pyridine-2-derivatives as smoothened receptor modulators” (Pfizer Inc., priority 2010, dated 2015).

What was measured:
Gli-Luc/MEF cells = test: Gli-Luc/MEF assay; type: cell-based, mouse; settings: Mus musculus, MEF; Shh-stimulated luciferase, 48 hours
Summary of the method: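 Shh-stimulated luciferase readout (Bright-Glo) after 48 h, 37 °C, 5% CO2, used to derive IC50 of inhibition. Gli-Luc transgenic mouse MEFs received test compounds at final […] in 3-fold dilutions, with recombinant mouse Shh added immediately at final 2 μg/mL.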

human Smo = human Smo (Homo sapiens (Human), UniProt Q99835); test: Smo radioligand competition binding assay; settings: for inhibition at 0.05 µM: 0.05 μM test compound, read-out: Smo % inh. @ 0.05 μM
human Smo, sequence (Q99835 181-787): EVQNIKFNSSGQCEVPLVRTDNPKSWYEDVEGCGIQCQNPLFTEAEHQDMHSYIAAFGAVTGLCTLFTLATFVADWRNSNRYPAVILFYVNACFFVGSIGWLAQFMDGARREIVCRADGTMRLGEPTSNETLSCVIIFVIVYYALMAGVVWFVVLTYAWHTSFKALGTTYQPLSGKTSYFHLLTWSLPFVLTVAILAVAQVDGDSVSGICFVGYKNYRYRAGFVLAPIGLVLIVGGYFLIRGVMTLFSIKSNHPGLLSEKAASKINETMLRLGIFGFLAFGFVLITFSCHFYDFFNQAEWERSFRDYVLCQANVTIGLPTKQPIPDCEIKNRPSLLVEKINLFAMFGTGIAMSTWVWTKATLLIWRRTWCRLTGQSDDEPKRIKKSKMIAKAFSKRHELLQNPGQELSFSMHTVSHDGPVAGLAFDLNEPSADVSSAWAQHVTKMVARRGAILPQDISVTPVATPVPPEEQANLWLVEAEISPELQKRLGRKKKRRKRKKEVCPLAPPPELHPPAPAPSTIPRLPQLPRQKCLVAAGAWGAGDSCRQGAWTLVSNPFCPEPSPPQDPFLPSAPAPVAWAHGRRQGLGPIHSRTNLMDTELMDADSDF
Summary of the method: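 Membranes from HEK293 cells expressing surface human Smo 181-781 (40 μg protein/well) incubated 2 h at room temperature with test compound and tritiated Smo antagonist (3 nM), pH 7.5 Tris buffer; filtration and scintillation counting. Non-specific binding defined with 30 μM cold antagonist; IC50 from four-parameter sigmoidal fit.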

| SMILES | IC50 (Gli-Luc/MEF cells) [nM] | IC50 (human Smo) [nM] | inhibition at 0.05 µM (human Smo) [%] |
| --- | --- | --- | --- |
| Cc1cccnc1-c1cc(N2CCN(C(=O)CCS(C)(=O)=O)CC2)ncc1Cl [Example A-93, 5′-chloro-3-methyl-2′-{4-[3-(methylsulfonyl)propanoyl]piperazin-1-yl}-2,4′-bipyridine] | 12.4 | 9.84 | 97.5 |
| Cc1cccnc1-c1cc(N2CCC(C(=O)NC3(c4ccccn4)CC3)CC2)ncc1Cl [Example A-55, 1-(5′-chloro-3-methyl-2,4′-bipyridin-2′-yl)-N-(1-pyridin-2-ylcyclopropyl)piperidine-4-carboxamide] | 25.2 | 63.3 | 83.7 |
| Cc1cccnc1-c1cc(N2CCC(C(=O)NC[C@H]3CCCO3)CC2)ncc1Cl [Example A-63, 1-(5′-chloro-3-methyl-2,4′-bipyridin-2′-yl)-N-[(2R)-tetrahydrofuran-2-ylmethyl]piperidine-4-carboxamide] | 83.6 | 137 | 82.5 |
| CS(=O)(=O)NC1CCN(c2cc(-c3ncc(Cl)cc3Cl)c(Cl)cn2)CC1 [Example A-12, N-[1-(3,5,5′-trichloro-2,4′-bipyridin-2′-yl)piperidin-4-yl]methanesulfonamide] | 53.4 | 18.8 | 88 |
| CS(=O)(=O)CCC(=O)N1CCN(c2ccc(Cl)c(-c3ccccn3)n2)CC1 [Example A-99, 3-chloro-6-{4-[3-(methylsulfonyl)propanoyl]piperazin-1-yl}-2,2′-bipyridine] | 23.9 | 33.1 | 94.4 |
| Cc1cccnc1-c1cc(N2CCC(C(=O)NCCc3c[nH]cn3)CC2)ncc1Cl [Example A-87, 1-(5′-chloro-3-methyl-2,4′-bipyridin-2′-yl)-N-[2-(1H-imidazol-4-yl)ethyl]piperidine-4-carboxamide] | 123 | 134 | 81.8 |
| CS(=O)(=O)NC1CCN(c2cc(-c3ccc(F)cn3)c(Cl)cn2)CC1 [Example A-18, N-[1-(5′-chloro-5-fluoro-2,4′-bipyridin-2′-yl)piperidin-4-yl]methanesulfonamide] | 82 | 343 | 58.9 |
| Cc1cccnc1-c1cc(N2CCC(NC(=O)CCS(C)(=O)=O)CC2)ncc1Cl [Example A-95, N-[1-(5′-chloro-3-methyl-2,4′-bipyridin-2′-yl)piperidin-4-yl]-3-(methylsulfonyl)propanamide] | 32 | 37 | 94 |
| Cc1cnc(-c2cc(N3CCC(CS(C)(=O)=O)CC3)ncc2Cl)c(C)c1 [Example A-98, 5′-chloro-3,5-dimethyl-2′-{4-[(methylsulfonyl)methyl]piperidin-1-yl}-2,4′-bipyridine] | 9.4 | 12.4 | 96.6 |
| Cc1cc(F)cnc1-c1cc(N2CCC(NC(=O)CN(C)C)CC2)ncc1Cl [Example A-145, N-[1-(5′-chloro-5-fluoro-3-methyl-2,4′-bipyridin-2′-yl)piperidin-4-yl]-N^2,N^2-dimethylglycinamide] | 11.3 | 66.2 | 88.9 |
| Cc1cccnc1-c1cc(N2CCC(C(=O)N[C@@H]3CCCC[C@H]3O)CC2)ncc1Cl [Example A-81, 1-(5′-chloro-3-methyl-2,4′-bipyridin-2′-yl)-N-[(1R,2R)-2-hydroxycyclohexyl]piperidine-4-carboxamide] | 15.7 | 32.6 | 97.9 |
| Cc1cccnc1-c1cc(N2CCN(C(=O)CC(C)(C)O)CC2)ncc1Cl [Example A-47, 4-[4-(5′-chloro-3-methyl-2,4′-bipyridin-2′-yl)piperazin-1-yl]-2-methyl-4-oxobutan-2-ol] | 36.3 | 21.7 | 95.2 |
| Cc1cccnc1-c1cc(N2CCC(C(=O)NCCC3C(=O)Nc4ccccc43)CC2)ncc1Cl (stereo not drawn) [Example A-61, 1-(5′-chloro-3-methyl-2,4′-bipyridin-2′-yl)-N-[2-(2-oxo-2,3-dihydro-1H-indol-3-yl)ethyl]piperidine-4-carboxamide] | 37.1 | 40.9 | 91.9 |
| Cc1cccnc1-c1cc(N2CCC(OCC(C)C)CC2)ncc1Cl [Example A-38, 5′-chloro-2′-(4-isobutoxypiperidin-1-yl)-3-methyl-2,4′-bipyridine] | 60.2 | 164 | 78.5 |
| Cc1cnc(-c2ccnc(N3CCC(NS(C)(=O)=O)CC3)c2)c(C)c1 [Example A-143, N-[1-(3,5-dimethyl-2,4′-bipyridin-2′-yl)piperidin-4-yl]methanesulfonamide] | 10.4 | 12.2 | 96.3 |
| Cc1cnc(-c2nc(N3CCC(NC(=O)CO)CC3)ccc2Cl)c(C)c1 [Example A-140, N-[1-(3-chloro-3′,5′-dimethyl-2,2′-bipyridin-6-yl)piperidin-4-yl]-2-hydroxyacetamide] | 19.5 | 47.7 | 92 |
| Cc1cnc(-c2cc(N3CCN(C(=O)CN(C)C)CC3)ncc2Cl)c(C)c1 [Example A-105, 2-[4-(5′-chloro-3,5-dimethyl-2,4′-bipyridin-2′-yl)piperazin-1-yl]-N,N-dimethyl-2-oxoethanamine] | 12.3 | 82.4 | 84.5 |
| Cc1cc(F)cnc1-c1cc(N2CCC(NC(=O)CCS(C)(=O)=O)CC2)ncc1Cl [Example A-144, N-[1-(5′-chloro-5-fluoro-3-methyl-2,4′-bipyridin-2′-yl)piperidin-4-yl]-3-(methylsulfonyl)propanamide] | 16.6 | 29.8 | 91.3 |
| Cc1cnc(-c2cc(N3CCN(S(C)(=O)=O)CC3)ncc2Cl)c(C)c1 [Example A-104, 5′-chloro-3,5-dimethyl-2′-[4-(methylsulfonyl)piperazin-1-yl]-2,4′-bipyridine] | 12.7 | 36 | 92.9 |
| Cc1ccc(-c2cc(N3CCC(NS(C)(=O)=O)CC3)ncc2Cl)nc1 [Example A-9, N-[1-(5′-chloro-5-methyl-2,4′-bipyridin-2′-yl)piperidin-4-yl]methanesulfonamide] | 226 | 75 | 65 |
| Cc1cccnc1-c1cc(N2CCC(NCCS(C)(=O)=O)CC2)ncc1Cl [Example A-49, 1-(5′-chloro-3-methyl-2,4′-bipyridin-2′-yl)-N-[2-(methylsulfonyl)ethyl]piperidin-4-amine] | 44 | 39 | 87 |
| Cc1cnc(-c2cc(N3CCC(CS(N)(=O)=O)CC3)ncc2Cl)c(C)c1 [Example A-118, 1-[1-(5′-chloro-3,5-dimethyl-2,4′-bipyridin-2′-yl)piperidin-4-yl]methanesulfonamide] | 8.46 | 11.1 | 93.8 |
| Cc1cccnc1-c1cc(N2CCC(C(=O)N[C@H]3CC[C@H](O)CC3)CC2)ncc1Cl (stereo in doubt) [Example A-71, 1-(5′-chloro-3-methyl-2,4′-bipyridin-2′-yl)-N-(trans-4-hydroxycyclohexyl)piperidine-4-carboxamide] | 39.4 | 72.9 | 85.7 |
